Molecules are shown by their SMILES. Counter-ions that a name gives are not always drawn.

In general, IC50 refers to the concentration needed to halve the response being measured.

The target in this test is T1, DP receptor (Homo sapiens, UniProt Q13258).
T1 construct: the human cell line LS174T, which expresses the endogenous DP receptor; endogenous in cells; host or cells: LS174T human cell line
T1 sequence (Q13258 1-359): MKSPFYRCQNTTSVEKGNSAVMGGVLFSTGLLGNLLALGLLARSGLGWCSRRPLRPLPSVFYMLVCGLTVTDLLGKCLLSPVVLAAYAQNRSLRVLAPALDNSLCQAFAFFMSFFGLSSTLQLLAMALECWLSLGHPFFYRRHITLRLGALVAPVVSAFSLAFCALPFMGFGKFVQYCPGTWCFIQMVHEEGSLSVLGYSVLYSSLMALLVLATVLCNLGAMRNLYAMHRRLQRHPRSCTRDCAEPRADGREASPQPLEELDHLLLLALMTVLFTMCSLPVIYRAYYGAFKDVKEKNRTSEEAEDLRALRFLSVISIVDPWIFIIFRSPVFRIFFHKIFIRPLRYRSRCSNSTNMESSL
The test can be described thus: SPA cAMP assay in human LS174 T cells (human DP functional assay). The conditions noted are these: inhibition of PGD2 (15 nM final) stimulated cAMP, LS174T cells expressing endogenous DP receptor. It counts as cell-based. As to the method:
The inhibitory effects of the compounds according to the invention are assessed in a human DP functional assay. A cAMP assay is employed using the human cell line LS174T, which expresses the endogenous DP receptor.
Protocol for SPA cAMP Assay in Human LS174 T Cells
• 1) Add equal volumes of tracer, antiserum and SPA anti-rabbit reagent to a bottle, ensuring that a sufficient volume of this mixture is prepared for the desired number of wells (150 μL/well). • 2) Mix thoroughly. • 3) This immunoreagent solution should be freshly prepared before each assay and not re-used.
Add 50 μL of […] IBMX into 100 mL PBS to make a final concentration of 100 μM and sonicate at 30° C. for 20 minutes.
Before each assay, it is freshly prepared. Add 3 μL of 10 mM stock solution to 20 mL DMSO, mix it thoroughly, and transfer 10 mL to 40 mL PBS.
Compound dilution is carried out in Biomex 2000 (Beckman) using Method 1_cAMP DP 11 points.
5 μL of each compound from the 10 mM stock compound plates is transferred to the wells of a 96-well plate respectively as below.
Fill the plate with 45 μL of DMSO except column 7 is filled with 28 μL DMSO. Pipette column 1 thoroughly, and transfer 12 μL into column 7 parallel. Perform 1:10 serial dilution from column 1 to column 6 and from column 7 to column 11 by transfer 5 μL to 45 μL DMSO to make following concentrations:
Fill a new 96-well plate with 247.5 μL of compound dilution buffer. Transfer 2.5 μL of serially diluted compounds from above plate to the new plate (1:100 dilution) as following:
Cell Growth • 1. […] Remove growth medium from cells. Cells in T165 flask are washed twice with 4 mL Trypsin followed by incubation at 37° C. and 5% CO2 for 3 minutes. • 4. Add 10 mL of medium and pipette thoroughly to separate the cells and count the cells. • 5. […] Assay Procedure Day 1 • Seed 45,000 cells/well in 200 μL medium in 96-well plates. Incubate the cell plate at 37° C., 5% CO2 and 95% humidity overnight. Day 2 • 1. Perform compound dilution. • 2. Prepare assay buffer, lysis buffer 1 & 2, PGD2 and standard. • 3. Aspirate media from the cells and add 100 μL of compound solution using Zymark Sciclone-ALH/FD protocol cAMP DP. • 4. Incubate the cells at 37° C., 5% CO2 and 95% humidity for 15 minutes. • 5. […] Aspirate media from the cells and add 50 μL of lysis buffer 1 using Zymark protocol cAMP DP lysis, and incubate at room temperature with shaking for 30 minutes. • 7. Add 150 μL immunoreagent to all wells (a total volume of 200 μL/well). • 8. Seal the plates and shake for 2 minutes, put into the chamber of the Wallac microtitre plate μ scintillation counter for 16 hours. […] Data Processing Set up standard curve of cAMP versus CPM.
The cAMP concentrations (pmol/mL) of unknown samples are calculated from a standard curve of cAMP versus CPM. % inhibition is calculated using the following formula: […]
For orientation: cAMP levels reflect the balance of adenylyl cyclase and phosphodiesterase activity.
In the case of `COc1ccc(CCNc2cc(-c3ccc(F)c(CNCCN(C)C)c3)nc(OC)n2)cc1` [Example 13(d), N-(2-Fluoro-5-{2-methoxy-6-[2-(4-methoxy-phenyl)-ethylamino]-pyrimidin-4-yl}-benzyl)-N′,N′-dimethyl-ethane-1,2-diamine hydrochloride], the IC50 was found to be 56 nM.

In turn, `COc1ccc(CCNc2cc(-c3ccc4[nH]cnc4c3)nc(OC)n2)cc1` [Example 14(a), [6-(1H-Benzoimidazol-5-yl)-2-methoxy-pyrimidin-4-yl]-[2-(4-methoxy-phenyl)-ethyl]-amine] gave an IC50 of 2.7 nM.

Molecule `COc1ccc(CCNc2cc(-c3ccc4[nH]c(=O)oc4c3)nc(OC)n2)cc1` [Example 14(c), 6-{2-Methoxy-6-[2-(4-methoxy-phenyl)-ethylamino]-pyrimidin-4-yl}-3H-benzooxazol-2-one] registered a half-inhibitory concentration (IC50) of 7 nM.

As to `COc1ccc(CCNc2cc(-c3cccc(O)c3)nc(OC)n2)cc1` [Example 15(a), 3-{2-Methoxy-6-[2-(4-methoxy-phenyl)-ethylamino]-pyrimidin-4-yl}-phenol hydrochloride], the half-inhibitory concentration (IC50) came to 0.1 nM.

In turn, `COc1nc(NCCc2ccc(Cl)cc2Cl)cc(-c2cccc(C(C)(C)C(=O)O)c2)n1` [Example 15(d), 2-(3-{6-[2-(2,4-Dichloro-phenyl)-ethylamino]-2-methoxy-pyrimidin-4-yl}-phenyl)-2-methyl-propionic acid hydrochloride] displayed an IC50 of 0.3 nM.

`COc1ccc(CCNc2cc(-c3cccc(C(=O)O)c3)nc(SC)n2)cc1OC` [Example 16(b), 3-{6-[2-(3,4-Dimethoxy-phenyl)-ethylamino]-2-methylsulfanyl-pyrimidin-4-yl}-benzoic acid] gave an IC50 of 243 nM.

On to `COc1ccc(CCNc2cc(-c3ccc(OC)c(OC)c3)nc(OC(C)C)n2)cc1OC` [Example 17(a), [2-(3,4-Dimethoxy-phenyl)-ethyl]-[6-(3,4-dimethoxy-phenyl)-2-isopropoxy-pyrimidin-4-yl]-amine], for which the IC50 is 6730 nM.

Take `CCOc1nc(NCCc2ccc(OC)c(OC)c2)cc(-c2ccc(OC)c(OC)c2)n1` [Example 17(b), [6-(3,4-Dimethoxy-phenyl)-2-ethoxy-pyrimidin-4-yl]-[2-(3,4-dimethoxy-phenyl)-ethyl]-amine]: the midpoint of inhibition, the IC50, lay at 655 nM.

In the case of `CCc1nc(NCCc2ccc(OC)cc2)cc(-c2cccc(OC)c2)n1` [Example 18, [2-Ethyl-6-(3-methoxy-phenyl)-pyrimidin-4-yl]-[2-(4-methoxy-phenyl)-ethyl]-amine], inhibition was half-maximal at 219 nM (IC50).

Molecule `COc1ccc(CCNc2cc(-c3cccc(OC)c3)nc(N(C)C)n2)cc1` [Example 19, 6-(3-Methoxy-phenyl)-N*4*-[2-(4-methoxy-phenyl)-ethyl]-N*2*,N*2*-dimethyl-pyrimidine-2,4-diamine hydrochloride] showed a half-inhibitory concentration (IC50) of 4650 nM.

`COc1ccc(CCNc2cc(-c3ccc(F)c(C(=O)O)c3)nc(OC)n2)cc1` [Example 20(a), 2-Fluoro-5-{2-methoxy-6-[2-(4-methoxy-phenyl)-ethylamino]-pyrimidin-4-yl}-benzoic acid]: the half-inhibitory concentration (IC50) is 0.4 nM.

The molecule `COc1ccc(CCNc2cc(-c3ccc[n+]([O-])c3)nc(OC)n2)cc1` [Example 21(a), [2-Methoxy-6-(1-oxy-pyridin-3-yl)-pyrimidin-4-yl]-[2-(4-methoxy-phenyl)-ethyl]-amine] returned an IC50 of 149 nM.

Molecule `COc1nc(NCCc2ccc3c(c2)OC(F)(F)O3)cc(-c2ccc[n+]([O-])c2)n1` [Example 21(b), [2-(2,2-Difluoro-benzo[1,3]dioxol-5-yl)-ethyl]-[2-methoxy-6-(1-oxy-pyridin-3-yl)-pyrimidin-4-yl]-amine] showed an IC50 of 2150 nM.

Consider `CCOC(=O)C(C)(C)Oc1cccc(-c2cc(NCCc3ccc(OC)cc3)nc(OC)n2)c1` [Example 22(a), 2-(3-{2-Methoxy-6-[2-(4-methoxy-phenyl)-ethylamino]-pyrimidin-4-yl}-phenoxy)-2-methyl-propionic acid ethyl ester], for which the half-inhibitory concentration (IC50) is 60 nM.

In the case of `COC(=O)COc1cccc(-c2cc(NCCc3ccc(Cl)cc3Cl)nc(OC)n2)c1` [Example 22(c), (3-{6-[2-(2,4-Dichloro-phenyl)-ethylamino]-2-methoxy-pyrimidin-4-yl}-phenoxy)-acetic acid methyl ester], the IC50 was determined as 0.6 nM.

Take `COC(=O)Cn1cc(-c2cc(NCCc3c(F)cccc3Cl)nc(OC)n2)ccc1=O` [Example 22(d), (5-{6-[2-(2-Chloro-6-fluoro-phenyl)-ethylamino]-2-methoxy-pyrimidin-4-yl}-2-oxo-2H-pyridin-1-yl)-acetic acid methyl ester]: the IC50 is 14 nM.

`COc1nc(NCCc2ccc(Cl)cc2Cl)cc(-c2cccc(OCC#N)c2)n1` [Example 22(e), (3-{6-[2-(2,4-Dichloro-phenyl)-ethylamino]-2-methoxy-pyrimidin-4-yl}-phenoxy)-acetonitrile] displayed an IC50 of 0.4 nM.

With `COc1nc(NCCc2c(F)cccc2Cl)cc(-c2ccc(=O)n(CC(=O)O)c2)n1` [Example 23(c), (5-{6-[2-(2-Chloro-6-fluoro-phenyl)-ethylamino]-2-methoxy-pyrimidin-4-yl}-2-oxo-2H-pyridin-1-yl)-acetic acid], the IC50 worked out at 0.3 nM.

The molecule `COc1ccc(CCNc2cc(-c3cccc(Cc4nnn[nH]4)c3)nc(OC)n2)cc1` [Example 24(b), [2-(4-Methoxy-phenyl)-ethyl]-{2-methoxy-6-[3-(1H-tetrazol-5-ylmethyl)-phenyl]-pyrimidin-4-yl}-amine hydrochloride] gave an IC50 of 0.1 nM.

For the molecule `COc1ccc(CCNc2cc(-c3ccc(OC)c(-c4nnn[nH]4)c3)nc(OC)n2)cc1` [Example 24(c), {2-Methoxy-6-[4-methoxy-3-(1H-tetrazol-5-yl)-phenyl]-pyrimidin-4-yl}-[2-(4-methoxy-phenyl)-ethyl]-amine], the concentration for half-maximal inhibition (IC50) is 0.5 nM.

Take `COc1nc(NCCc2ccc(OC)c(OC)c2)cc(-c2cccc(C(=O)NCCN3CCCC3)c2)n1` [Example 25(b), 3-{6-[2-(3,4-Dimethoxy-phenyl)-ethylamino]-2-methoxy-pyrimidin-4-yl}-N-(2-pyrrolidin-1-yl-ethyl)-benzamide]: half-maximal inhibition (IC50) was put at 30 nM.

Turning to `COc1ccc(CCNc2cc(-c3ccsc3/C=N/O)nc(OC)n2)cc1` [Example 26(d), 3-{2-Methoxy-6-[2-(4-methoxy-phenyl)-ethylamino]-pyrimidin-4-yl}-thiophene-2-carbaldehyde oxime], the IC50 came to 0.4 nM.

Take `COc1ccc(CCNc2cc(-c3ccc(/C(C)=N\O)s3)nc(OC)n2)cc1` [Example 26(e), 1-(5-{2-Methoxy-6-[2-(4-methoxy-phenyl)-ethylamino]-pyrimidin-4-yl}-thiophen-2-yl)-ethanone oxime]: the IC50 was 0.8 nM.

As to `COc1ccc(CCNc2cc(-c3ccc(F)c(/C=N\O)c3)nc(OC)n2)cc1` [Example 26, 2-Fluoro-5-{2-methoxy-6-[2-(4-methoxy-phenyl)-ethylamino]-pyrimidin-4-yl}-benzaldehyde oxime], the half-inhibitory concentration (IC50) is 4.5 nM.

Molecule `COc1ccc(CCNc2cc(-c3ccc(F)c(CN)c3)nc(OC)n2)cc1` [Example 27, [6-(3-Aminomethyl-4-fluoro-phenyl)-2-methoxy-pyrimidin-4-yl]-[2-(4-methoxy-phenyl)-ethyl]-amine hydrochloride] had an IC50 of 41 nM.

Values taken from patent US7517889B2, “2,6-substituted-4-monosubstitutedamino-pyrimidine as prostaglandin D2 receptor antagonists” (Aventis Pharmaceuticals, Inc., priority 2004, dated 2009).
